Source: patent US20260015363A1, “SUBSTITUTED PYRIMIDINE-FUSED RING INHIBITOR, METHOD FOR PREPARING SAME, AND USE THEREOF” (Suzhou Zelgen Biopharmaceuticals Co., Ltd., priority 2022, published 2026)
Where a name gives a salt, the structure may show the parent alone.

Tests used:
AsPC-1 (G12D) = assay: KRAS mutant cell proliferation inhibition assay (CellTiter-Glo 3D), AsPC-1; assay type: cell-based, human; conditions: Homo sapiens, ASPC1, 168 h, AsPC-1 (G12D) cells, 7 days
Description: (§1) Positive control: MRTX1133
(§2) • (a) The cells were thawed in T75 cell culture flasks: • (b) When 80%-90% cell confluence was achieved, the cells were passaged.
(§3) The diluted test compound was added to a 384-well cell culture plate using a nanoliter pipetting system, and replicate wells were set. An equal volume of medium was added to the positive control group; an equal volume of DMSO was added to the negative control group. The plate was centrifuged at 1000 rpm at room temperature for 1 min.
(§4) The cells were seeded into a) 384-well culture plate. An equal volume of cells was added to the negative control group, and only an equal volume of medium was added to the positive control group. The plate was centrifuged at 1000 rpm at room temperature for 1 min. The final DMSO concentration in the final compound was 0.5%. The plate was incubated in a thermostatic incubator at 37° C. with 5% CO2 for 7 days.
(§5) CellTiter-Glo® 3D was added to b) 384-well cell culture plate at 20 μL/well. The plate was shaken at 320 rpm in the dark for 20 min, and incubated at room temperature in the dark for 2 h. The luminescence values were read using an Envision multi-mode microplate reader.
(§6) The inhibition rates (IRs) of the test compounds were calculated according to the following formula: IR (%)=(1−(RLU compound−RLU blank control)/(RLU vehicle control−RLU blank control))×100%. The inhibition rates of the compounds at different concentrations were calculated in Excel, and then inhibition curves were plotted and relevant parameters including minimum inhibition rate, maximum inhibition rate and IC50 were calculated using GraphPad Prism software.

H727 (G12V) = assay: KRAS mutant cell proliferation inhibition assay (CellTiter-Glo 3D), H727; assay type: cell-based, human; conditions: Homo sapiens, NCI-H727, 168 h, H727 (G12V) cells, 7 days
Description: as §1, §2, §3, §4, §5, §6

SW480 (G12V) = assay: KRAS mutant cell proliferation inhibition assay (CellTiter-Glo 3D), SW480; assay type: cell-based; conditions: Homo sapiens, 168 h, SW480 (G12V) cells, 7 days
Description: as §1, §2, §3, §4, §5, §6

PSN-1 (G12R) = assay: KRAS mutant cell proliferation inhibition assay (CellTiter-Glo 3D), PSN-1; assay type: cell-based; conditions: Homo sapiens, PSN1, 168 h, PSN-1 (G12R) cells, 7 days
Description: as §1, §2, §3, §4, §5, §6

MNK1 (WT) = assay: Cell proliferation inhibition assay (CellTiter-Glo 3D), MNK1; assay type: cell-based, human; conditions: Homo sapiens, 168 h, MNK1 (WT) cells, 7 days
Description: as §1, §2, §3, §4, §5, §6

| Compound | IC50 (AsPC-1 (G12D)) [nM] | IC50 (H727 (G12V)) [nM] | IC50 (SW480 (G12V)) [nM] | IC50 (PSN-1 (G12R)) [nM] | IC50 (MNK1 (WT)) [nM] |
| --- | --- | --- | --- | --- | --- |
| CCc1c(F)ccc2cc(O)cc(-c3ncc4c(N5CCCC6(CCO6)C5)nc(OC[C@@]56CCCN5C[C@@]5(CC5(F)F)C6)nc4c3F)c12 (stereo partly drawn) [Example A-16, 4-(2-(((1S,7a'S)-2,2-Difluorodihydro-1′H,3′H-spiro[cyclopropane-1,2′-pyrrolizin]-7a′ (5′H)-yl)methoxy)-8-fluoro-4-(1-oxa-6-azaspiro[3.5]nonan-6-yl)pyrido[4,3-d]pyrimidin-7-yl)-5-ethyl-6-fluoronaphthalen-2-ol] | 11.4 | 45.1 | 68.2 | 1000 | 22.7 |
| CCc1c(F)ccc2cc(O)cc(N3CCc4c(nc(OCC56CCCN5C[C@@]5(C6)CC5(F)F)nc4N4CCCn5nc(C(=O)N(C)C)cc5C4)C3)c12 (stereo in doubt) [Example B-14, 5-(2-(((1R,7a′R)-2,2-Difluorodihydro-1′H,3′H-spiro[cyclopropane-1,2′-pyrrolizin]-7a′ (5′H)-yl)methoxy)-7-(8-ethyl-7-fluoro-3-hydroxynaphthalen-1-yl)-5,6,7,8-tetrahydropyrido[3,4-d]pyrimidin-4-yl)-N,N-dimethyl-5,6,7,8-tetrahydro-4H-pyrazolo[1,5-a][1,4]diazepine-2-carboxamide hydrochloride] | 26.9 | 127 | – | 7560 | 92.3 |
| C#Cc1c(F)ccc2cc(O)cc(-c3ncc4c(N5CC6CCC(C5)N6)nc(OC[C@@]56CCCN5C[C@H](F)C6)nc4c3F)c12 [MRTX1133, reference compound] | 10.1 | 2270 | 432 | > 10000 | 319 |
| CCc1c(F)ccc2cc(O)cc(-c3ncc4c(N5CCC[C@]6(C5)NC(=O)NC6=O)nc(OC[C@@]56CCCN5C[C@@]5(CC5(F)F)C6)nc4c3F)c12 [Example A-27, (R)-7-(2-(((1S,7a'S)-2,2-Difluorodihydro-1′H,3′H-spiro[cyclopropane-1,2′-pyrrolizin]-7a′ (5′H)-yl)methoxy)-7-(8-ethyl-7-fluoro-3-hydroxynaphthalen-1-yl)-8-fluoropyrido[4,3-d]pyrimidin-4-yl)-1,3,7-triazaspiro[4.5]decane-2,4-dione] | 23.2 | 35.9 | – | 79.7 | 5.35 |
